Values quoted from earlier work, collected in patent publication US20050002962A1, “Immunostimulatory agents in botanicals” (priority 2003, published 2005).

Assays:
macrophages = settings: 250 μg/ml
mice = settings: mouse, in vivo

Row | Compound | macrophage IL-1 production, of maximal E. coli LPS (10 μg/ml) (macrophages) [%] | macrophage interferon-β production versus maximal E. coli LPS (10 μg/ml) (macrophages) | carbon clearance (mice)
1 | arabinogalactan | 20 | equal to | 
2 | echinacoside |  |  | inactive
3 | O=C(/C=C/c1ccc(O)c(O)c1)O[C@@H](C(=O)O)[C@@H](OC(=O)/C=C/c1ccc(O)c(O)c1)C(=O)O [cichoric acid, Cichoric acid] |  |  | enhanced carbon clearance
